Measurements taken from patent publication US8138184B2, “Isoxazole derivatives and pharmaceutical compositions comprising the same” (Kaohsiung Medical University, priority 2008, dated 2012).

Key:
[1] = test system: MCF-7 cells (human breast adenocarcinoma); assay: Cytotoxicity assay (MTS reduction), MCF-7; format: cell-based; conditions: for activity at 4 µg/mL / activity at 20 µg/mL: Homo sapiens, MCF7, 72 h, 3 days, % of DMSO control, read-out: Growth percentage MCF7 (Breast); for activity at 4 µg/mL / inhibition of growth of MCF7 (in words): 4 μg/mL; for activity at 20 µg/mL: 20 μg/mL
Method: (§1) MCF-7 cells (human breast adenocarcinoma), NCI-H460 cells (non-small-cell lung cancer) and SF-268cells (glioblastoma cells) were cultured in a Dulbecco's modified Eagle's medium supplemented with a 10% fetal calf serum and a nonessential amino acid (Life Technologies, Inc.) and maintained at 37° C. in a humidified incubator with 5% CO2.
(§2) Human cancer cells were seeded in 96-well microtiter plates at a density of 6500, 2500 and 7500 cells/well in 100 μl of culture medium for MCF-7, NCI-H460, and SF-268, respectively. […] Cells were treated with test compounds for 3 days. Cell viability was determined by the 5-[3-(carboxymethoxy)-phenyl]-2-(4,5-dimethylthiazolyl)-3-(4-sulfophenyl)tetrazolium salt (MTS) reduction assay. Actinomycin D (10 μM, final concentration) and DMSO (0.1%, final concentration) were used as positive and vehicle controls, respectively. Results were expressed as a % of the DMSO control.

[2] = Cell viability by MTT assay in hADSCs; format: cell-based, human; conditions: human, human adipose tissue derived stem cells (hADSCs), % of control
Method: (§3) Human adipose tissue derived stem cells (hADSCs), which is derived from adipose tissue, were selected an maintained in a keratinocyte SFM medium (Gibco BRL, Gaithersburg, Md.) supplemented with 5% FBS, 100 U/ml of penicillin and streptomycin.
(§4) New synthetic compounds were dissolved in DMSO to a final concentration of 10 mM and stored at −20° C. The concentration used was 10 μM and freshly diluted to the medium with a final concentration of DMSO at 0.1%. Control cultures were treated with the same amount of DMSO as used in the corresponding experiments.
The MTT assay is a calorimetric assay based on the ability of the viable cells to reduce a soluble yellow tetrazolium salt to blue formazan crystals (Carmichael, J. et. el. Cancer Research 1987, 47, 936). After compound treatments, 350 μL of MTT solution ([…] in PBS) were added to each well and incubated for 4 hrs. DMSO was then added for another 0.5 hrs to thoroughly dissolve the dark blue crystals. The absorbance at 570 nm was measured with an ELISA reader. Inhibition of mitochondrial metabolism was shown as relative activity (% of control).

[3] = test system: Human adipose tissue derived stem cells (hADSCs); assay: Cytotoxicity assay by lactate dehydrogenase (LDH) leakage in hADSCs; format: cell-based; conditions: 10 μM, % of total cell toxicity
Method: as §3, §4
Lactate dehydrogenase (LDH) leakage from cells was measured to quantify the cytotoxicity by using a cytotoxicity detection kit (Roche, Germany) (Crowston, J. G. et al Invest. Ophthalmol. Vis. Sci. 1998, 39, 449). Cells were previously seeded into 48-well plates (4×10^4 cells/well). After a drug treatment, the supernatants and cell layers of the cultures were collected for assay. According to the manufacturer's guidelines for the detection kit, cell layers were lysed with 1% TritonX-100, and cell lysates and supernatants were assayed in a 96-well plate, respectively. Briefly, 100 μL of catalyst solution was added in each assay well for 20 min. Absorbance was measured with an ELISA reader with a 490 nm filter. LDH leakage was shown as relative activity (% of total cell toxicity).

[4] = test system: SF-268 cells (glioblastoma cells); assay: Cytotoxicity assay (MTS reduction), SF-268; format: cell-based, human; conditions: for activity at 4 µg/mL / activity at 20 µg/mL: Homo sapiens, SF-268, 72 h, 3 days, % of DMSO control, read-out: Growth percentage SF-268 (CNS); for activity at 4 µg/mL / inhibition of growth of SF-268 (in words): 4 μg/mL; for activity at 20 µg/mL: 20 μg/mL
Method: as §1, §2

[5] = test system: NCI-H460 cells (non-small-cell lung cancer); assay: Cytotoxicity assay (MTS reduction), NCI-H460; format: cell-based, human; conditions: for activity at 4 µg/mL / activity at 20 µg/mL: Homo sapiens, NCI-H460, 72 h, 3 days, % of DMSO control, read-out: Growth percentage NCI-H460 (Lung); for activity at 4 µg/mL / inhibition of growth of NCI-H460 (in words): 4 μg/mL; for activity at 20 µg/mL: 20 μg/mL
Method: as §1, §2

[6] = test system: Human adipose tissue derived stem cells (hADSCs); assay: Osteogenic differentiation and quantification of mineralization (Alizarin red S) in hADSCs; format: cell-based; conditions: 10 μM
Method: as §3, §4
Osteogenic differentiation was induced by culturing cells in an osteo-induction medium (OIM, 10% FBS, 0.1 μM dexamethasone, 10 mM β-glycerophosphate, and L-Ascorbic 2 phosphate 100 μM in low glucose DMEM) for 7-14 days. The extracellular matrix calcification was estimated by using an Alizarin red S stain (Carl, A. et al Anal. Biochem. 2004, 329, 77). The Alizarin red S-stained mineral was quantified by the osteogenesis quantification kit (CHEMICON®).

| Compound | activity at 4 µg/mL [1] [%] | activity at 20 µg/mL [1] [%] | viability at 3 days, 10 µM [2] [%] | Cell cytotoxicity (3 days, LDH) [3] [%] | activity at 4 µg/mL [4] [%] | activity at 20 µg/mL [4] [%] | activity at 4 µg/mL [5] [%] | activity at 20 µg/mL [5] [%] | inhibition of growth of MCF7 (in words) [1] | inhibition of growth of SF-268 (in words) [4] | inhibition of growth of NCI-H460 (in words) [5] | osteoblast activity (mineralization in hADSCs), in words [6] |
| --- | --- | --- | --- | --- | --- | --- | --- | --- | --- | --- | --- | --- |
| COc1ccc(-c2cnoc2-c2ccc(OC(C)C)cc2OCCCCN2CCCCC2)cc1 [5d, 5-{4-Isopropoxy-2-[4-(piperidin-1-yl)butoxy]phenyl}-4-(4-methoxyphenyl)isoxazole] | 90 | 1 | 78 | 0 | 119 | 2 | 68 | 1 |  |  |  |  |
| COc1ccc(-c2cnoc2-c2ccc(OC(C)C)cc2O)cc1 [compound 3, 5-Isopropoxy-2-[4-(4-methoxyphenyl)isoxazol-5-yl]phenol] |  |  | 6 | 68 |  |  |  |  |  |  |  |  |
| COc1ccc(-c2cnoc2-c2ccc(OC(C)C)cc2OCCCCCCN2CCOCC2)cc1 [5f, 4-{6-{5-Isopropoxy-2-[4-(4-methoxyphenyl)isoxazol-5-yl]phenoxy}hexyl}morpholine] | 44 | -1 | 53 | 17 | 38 | 1 | 17 | 0 |  |  |  |  |
| COc1ccc(-c2cnoc2-c2ccc(OC(C)C)cc2OCCCCCCCN2CCCC2)cc1 [5i, 5-{4-Isopropoxy-2-[7-(pyrrolidin-1-yl)heptyloxy]phenyl}-4-(4-methoxyphenyl)isoxazole] | 32 | 2 | 63 | 0 | 30 | 2 | 11 | 1 |  |  |  |  |
| COc1ccc(-c2cnoc2-c2ccc(OC(C)C)cc2OCCCCCCN2CCCCC2)cc1 [5h, 5-{4-isopropoxy-2-[6-(piperidin-1-yl)hexyloxy]phenyl}-4-(4-methoxyphenyl)isoxazole] | 13 | -3 | 57 | 0 | 4 | -1 | 2 | -1 | significantly inhibit the growth | significantly inhibit the growth | significantly inhibit the growth |  |
| COc1ccc(-c2cnoc2-c2ccc(OC(C)C)cc2OCCCCN2CCCC2)cc1 [5a, 5-{4-Isopropoxy-2-[4-(pyrrolidin-1-yl)butoxy]phenyl}-4-(4-methoxyphenyl)isoxazole] | 83 | 1 | 71 | 0 | 121 | 2 | 81 | 1 |  |  |  | more active than ipriflavone |
| COc1ccc(-c2cnoc2-c2ccc(OC(C)C)cc2OCCCCN2CCOCC2)cc1 [5b, 4-{4-{5-Isopropoxy-2-[4-(4-methoxyphenyl)isoxazol-5-yl]phenoxy}butyl}morpholine] | 63 | 4 | 58 | 13 | 58 | 3 | 52 | 1 |  |  |  |  |
| COc1ccc(-c2cnoc2-c2ccc(OC(C)C)cc2OCCCCCCCN2CCCCC2)cc1 [5l, 5-{4-Isopropoxy-2-[7-(piperidin-1-yl)heptyloxy]phenyl}-4-(4-methoxyphenyl)isoxazole] | 29 | 1 | 58 | 0 | 25 | 2 | 8 | 1 |  |  |  |  |
| COc1ccc(-c2cnoc2-c2ccc(OC(C)C)cc2OCCCCCCCN2CCOCC2)cc1 [5j, 4-{7-{5-isopropoxy-2-[4-(4-methoxyphenyl)isoxazol-5-yl]phenoxy}heptyl}morpholine] | 25 | 1 | 54 | 12 | 32 | 2 | 10 | 0 |  |  |  |  |
| COc1ccc(-c2cnoc2-c2ccc(OC(C)C)cc2OCCCCN2CCNCC2)cc1 [5c, 5-{4-Isopropoxy-2-[4-(piperazin-1-yl)butoxy]phenyl}-4-(4-methoxyphenyl)isoxazole] | 7 | -1 | 86 | 33 | 68 | -2 | 29 | 0 |  |  |  |  |
| CC(C)Oc1ccc2c(=O)c(-c3ccccc3)coc2c1 [Ipriflavone, reference compound] |  |  | 77 | 0 |  |  |  |  |  |  |  |  |
| COc1ccc(-c2cnoc2-c2ccc(OC(C)C)cc2OCCCCCCN2CCCC2)cc1 [5e, 5-{4-Isopropoxy-2-[6-(pyrrolidin-1-yl)hexyloxy]phenyl}-4-(4-methoxyphenyl)isoxazole] | 55 | 0 | 64 | 0 | 38 | 1 | 22 | 1 |  |  |  | more active than ipriflavone |
| COc1ccc(-c2cnoc2-c2ccc(OCCCCCCN3CCNCC3)cc2O)cc1 [8a] | 7 | -1 | 64 | 0 | 68 | -2 | 29 | 0 |  |  |  |  |
| COc1ccc(-c2cnoc2-c2ccc(OC(C)C)cc2OCCCCCCCN2CCNCC2)cc1 [5k] | 1 | 1 | 68 | 0 | 3 | 1 | 0 | 1 |  |  |  |  |
| COc1ccc(-c2cnoc2-c2ccc(OC(C)C)cc2OCCCCCCN2CCNCC2)cc1 [5g, 5-{4-Isopropoxy-2-[6-(piperazin-1-yl)hexyloxy]phenyl}-4-(4-methoxyphenyl)isoxazole] | 14 | -3 | 60 | 0 | 20 | -1 | 0 | -1 | significantly inhibit the growth | significantly inhibit the growth | significantly inhibit the growth |  |
